{
  "source": "ChEMBL document CHEMBL1147149",
  "about": "“Ecdysteroids from Serratula wolffii roots” (2007)",
  "data": [
    {"tested_on": "Acyrthosiphon pisum", "assay": "Toxicity against larvae of orally dosed Acyrthosiphon pisum Harris", "type": "functional", "units": {"LC50": "ppm"}, "values": [
      {"smiles": "C/C(=C\\CCC(C)(C)O)[C@H]1CC[C@@]2(O)C3=CC(=O)[C@@H]4C[C@@H](O)[C@@H](O)C[C@]4(C)C3CC[C@]12C", "note": "(stereo partly drawn)", "LC50": ">100"},
      {"smiles": "C/C(=C\\CCC(C)(C)O)[C@H]1CC[C@@]2(O)C3=CC(=O)[C@@H]4C[C@@H](O)[C@@H](O)[C@@H](O)[C@]4(C)C3CC[C@]12C", "note": "(stereo partly drawn)", "LC50": 48.5},
      {"smiles": "CC(C)(O)CC[C@@H](O)[C@](C)(O)[C@H]1CC[C@@]2(O)C3=CC(=O)[C@@H]4C[C@@H](O)[C@@H](O)C[C@]4(C)[C@H]3CC[C@]12C", "note": "[20-HYDROXYECDYSONE]", "LC50": 1.07}
    ]}
  ]
}
